Active and inactive are the calls of the source.
Assays:
[1] = viability of uninfected HEp-2 cells – cell-based, HTS, cytotoxicity control for RSV inhibitor project, dose response (AID 2410); type: functional; details: human respiratory syncytial virus
[2] = target: Beta Lactamase (Pseudomonas aeruginosa, UniProt Q932Y6); assay: BLA reporter interference, concentration series – BLA reporter cells, FRET fluorescence, artefact control for TLR9-MyD88 binding inhibitor project, dose response (AID 588341); type: cell-based;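 further: cell based assay in CHO-K1 cells stably expressing beta-lactamase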
[3] = system: Streptococcus; assay: GAS UMAA2166 growth inhibition – luminescence, BacTiterGlo, counter-screen for streptokinase expression inhibitor project, dose response (AID 1915); type: functional, organism-based;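 further: potency for reduction of bacterial viability or growth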
[4] = system: CHO; assay: CHO cell viability loss, potency – luminescence, cytotoxicity control for TLR9-MyD88 binding inhibitor project, dose response (AID 588339); type: functional, cell-based, hamster; details: Cricetulus griseus;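 further: CHO cells stably coexpressing TLR9 and MyD88 fusions from primary screen; compound exposure lasted 48 hours before viability readout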
[5] = system: Streptococcus sp. 'group A'; assay: Streptococcus pyogenes SK(-)GAS viability under kanamycin – luminescence, BacTiterGlo, confirmation, counter-screen for streptokinase expression inhibitor project, dose response (AID 1900); type: functional, organism-based
[6] = Counterscreen for AddAB inhibitors: absorbance-based bacterial cell-based high throughput dose response assay for inhibitors of bacterial viability. [Related pubchem assays (depositor defined):AID435030, AID449728, AID449731, AID488942, AID488955, AID488956]; type: functional
[7] = THP-1 cell cytotoxicity, dose response, cytotoxicity control for non-replicating M. tuberculosis project (AID 489025); type: functional
[8] = target: T1, Exodeoxyribonuclease V (Escherichia coli (strain K12), UniProt P04993+P07648+P08394); assay: RecBCD inhibition via phage-restricted bacterial growth – absorbance, V66 E. coli, mutant T4 phage, counter-screen for AddAB inhibitor project, dose response (AID 492957); type: functional, cell-based, Escherichia coli str. K-12 substr. MG1655
T1 sequence (P04993 whole entry): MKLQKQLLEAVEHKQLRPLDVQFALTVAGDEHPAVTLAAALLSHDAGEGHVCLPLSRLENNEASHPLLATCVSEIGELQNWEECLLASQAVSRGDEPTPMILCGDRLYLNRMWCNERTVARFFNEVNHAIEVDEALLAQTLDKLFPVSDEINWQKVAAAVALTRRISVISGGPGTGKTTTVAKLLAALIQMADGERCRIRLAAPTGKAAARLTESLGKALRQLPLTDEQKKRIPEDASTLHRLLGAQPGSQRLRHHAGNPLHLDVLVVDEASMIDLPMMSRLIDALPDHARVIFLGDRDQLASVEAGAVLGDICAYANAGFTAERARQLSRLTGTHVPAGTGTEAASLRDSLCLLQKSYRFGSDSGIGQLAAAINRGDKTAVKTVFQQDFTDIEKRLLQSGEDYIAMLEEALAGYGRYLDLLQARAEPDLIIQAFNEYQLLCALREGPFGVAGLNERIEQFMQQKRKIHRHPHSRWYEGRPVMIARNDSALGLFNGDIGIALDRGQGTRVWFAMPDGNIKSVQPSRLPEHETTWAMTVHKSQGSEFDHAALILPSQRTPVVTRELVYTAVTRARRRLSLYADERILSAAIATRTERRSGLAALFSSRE
T1 sequence (P07648 whole entry): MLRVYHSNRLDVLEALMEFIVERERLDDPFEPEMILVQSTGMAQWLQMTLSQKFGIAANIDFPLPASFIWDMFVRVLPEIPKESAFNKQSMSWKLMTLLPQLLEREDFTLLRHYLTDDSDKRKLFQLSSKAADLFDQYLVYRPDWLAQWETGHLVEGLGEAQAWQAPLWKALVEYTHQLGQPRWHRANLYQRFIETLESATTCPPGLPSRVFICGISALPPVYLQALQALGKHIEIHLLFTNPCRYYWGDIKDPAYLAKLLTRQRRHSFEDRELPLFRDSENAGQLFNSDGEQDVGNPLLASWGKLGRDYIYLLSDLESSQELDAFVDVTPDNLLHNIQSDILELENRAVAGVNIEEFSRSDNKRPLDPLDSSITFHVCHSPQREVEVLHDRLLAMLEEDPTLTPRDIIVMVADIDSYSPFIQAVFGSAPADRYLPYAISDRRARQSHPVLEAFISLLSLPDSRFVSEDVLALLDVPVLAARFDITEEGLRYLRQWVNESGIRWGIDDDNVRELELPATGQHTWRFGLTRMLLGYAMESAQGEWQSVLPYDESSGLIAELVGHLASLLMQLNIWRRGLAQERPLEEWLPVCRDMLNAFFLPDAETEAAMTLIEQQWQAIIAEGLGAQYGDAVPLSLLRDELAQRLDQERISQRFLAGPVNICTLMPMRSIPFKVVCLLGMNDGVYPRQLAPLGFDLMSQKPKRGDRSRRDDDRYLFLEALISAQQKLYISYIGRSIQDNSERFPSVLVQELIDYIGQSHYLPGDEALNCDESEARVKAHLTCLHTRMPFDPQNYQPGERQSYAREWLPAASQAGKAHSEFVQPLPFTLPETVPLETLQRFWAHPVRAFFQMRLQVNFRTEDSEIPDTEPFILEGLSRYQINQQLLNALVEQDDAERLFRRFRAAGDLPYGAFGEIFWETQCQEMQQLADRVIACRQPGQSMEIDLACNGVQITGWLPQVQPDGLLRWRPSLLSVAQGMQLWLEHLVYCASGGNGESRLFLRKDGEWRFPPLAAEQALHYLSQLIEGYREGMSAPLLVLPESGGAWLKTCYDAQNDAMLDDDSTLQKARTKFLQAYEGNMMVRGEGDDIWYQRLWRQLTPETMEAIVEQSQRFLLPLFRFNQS
T1 sequence (P08394 whole entry): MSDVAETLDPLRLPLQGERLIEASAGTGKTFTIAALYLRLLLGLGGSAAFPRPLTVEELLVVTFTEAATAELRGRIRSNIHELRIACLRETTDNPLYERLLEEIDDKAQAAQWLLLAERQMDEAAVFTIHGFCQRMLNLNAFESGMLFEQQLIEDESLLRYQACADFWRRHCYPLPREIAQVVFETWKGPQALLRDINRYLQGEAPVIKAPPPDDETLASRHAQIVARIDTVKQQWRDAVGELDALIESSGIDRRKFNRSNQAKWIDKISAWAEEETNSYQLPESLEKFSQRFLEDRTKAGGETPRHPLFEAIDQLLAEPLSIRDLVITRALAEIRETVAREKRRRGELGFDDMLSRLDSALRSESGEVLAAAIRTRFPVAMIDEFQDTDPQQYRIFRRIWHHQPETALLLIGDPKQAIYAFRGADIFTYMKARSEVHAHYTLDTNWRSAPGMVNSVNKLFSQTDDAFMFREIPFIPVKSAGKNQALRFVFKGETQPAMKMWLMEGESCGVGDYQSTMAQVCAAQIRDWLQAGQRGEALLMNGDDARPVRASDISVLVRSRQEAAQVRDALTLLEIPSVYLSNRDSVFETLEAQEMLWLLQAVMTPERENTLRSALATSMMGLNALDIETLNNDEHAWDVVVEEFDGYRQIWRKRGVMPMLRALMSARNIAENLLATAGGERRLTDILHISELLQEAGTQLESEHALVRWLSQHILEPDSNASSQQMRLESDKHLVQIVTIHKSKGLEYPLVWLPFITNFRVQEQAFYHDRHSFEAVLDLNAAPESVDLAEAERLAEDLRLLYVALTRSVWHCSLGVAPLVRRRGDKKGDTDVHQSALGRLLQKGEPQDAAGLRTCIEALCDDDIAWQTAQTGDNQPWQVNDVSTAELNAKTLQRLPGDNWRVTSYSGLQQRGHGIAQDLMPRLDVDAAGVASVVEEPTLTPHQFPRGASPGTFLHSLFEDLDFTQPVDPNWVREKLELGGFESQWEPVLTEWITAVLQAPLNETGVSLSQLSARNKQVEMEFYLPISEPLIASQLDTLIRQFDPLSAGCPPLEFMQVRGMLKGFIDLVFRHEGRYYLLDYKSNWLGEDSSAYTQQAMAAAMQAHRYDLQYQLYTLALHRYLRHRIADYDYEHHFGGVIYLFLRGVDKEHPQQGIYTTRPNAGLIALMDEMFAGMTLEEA

[9] = Vero E6 cell cytotoxicity, dose response, cytotoxicity control for non-replicating M. tuberculosis project, secondary assay (AID 492998); type: functional, VeroE6; details: Vero C1008
[10] = cells; type: functional
[11] = NIH3T3 cell viability loss – ATP luminescence, mouse fibroblasts, counter-screen, dose response (AID 2010); type: functional, cell-based;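 further: cells exposed to compound for about 90 hours before reading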
[12] = Trypanosoma cruzi growth suppression in host cells – NIH3T3 host cells, beta-gal luminescence, confirmation (AID 2044); type: functional, cell-based;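 further: intracellular parasites grown in NIH/3T3 mouse fibroblasts as host cells; luminescent beta-galactosidase reporter signal from transgenic T. cruzi replicating inside host cells; inhibitors lower the luminescence signal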
[13] = system: HEK293; assay: inhibition of NOD1-driven NF-kB reporter – cell-based, luminescence, uHTS, primary screen (AID 1578); type: functional; details: Homo sapiens
[14] = target: T2, RNA-binding protein pos-1 (Caenorhabditis elegans, UniProt G5EF15); assay: disruptors of C. elegans POS-1 RNA interaction – biochemical, fluorescence polarization, dose response (AID 1964);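 further: purified POS-1 fused to maltose binding protein made in E. coli; potency of compounds blocking POS-1 binding to fluorescent RNA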
T2 sequence (G5EF15 whole entry): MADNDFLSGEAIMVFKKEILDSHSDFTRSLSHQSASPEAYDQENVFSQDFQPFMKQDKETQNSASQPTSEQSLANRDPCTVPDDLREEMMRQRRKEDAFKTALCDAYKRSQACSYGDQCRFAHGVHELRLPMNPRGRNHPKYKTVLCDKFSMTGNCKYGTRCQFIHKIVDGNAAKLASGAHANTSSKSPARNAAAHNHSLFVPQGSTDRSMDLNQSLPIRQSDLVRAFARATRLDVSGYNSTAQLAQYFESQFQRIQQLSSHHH

[15] = target: Nucleotide-binding oligomerization domain-containing protein 2 (Homo sapiens, UniProt Q9HC29); assay: inhibition of NOD2-driven NF-kB reporter – cell-based, luminescence, uHTS, HEK293 (AID 1566); type: functional
[16] = system: HEK293; assay: cells; type: functional, cell-based; details: Homo sapiens
[17] = system: HEK293; assay: NOD2 signaling inhibitors in MDP-stimulated cells, cell-based, uHTS, luminescence (AID 2001); type: functional; details: Homo sapiens
[18] = system: HEK293; assay: cells; type: functional, cell-based; details: Homo sapiens; remark: listed apart in the source
[19] = system: HEK293; assay: cells; type: functional, cell-based; details: Homo sapiens; remark: listed apart in the source
[20] = target: Cytochrome P450 3A4 (Homo sapiens, UniProt P08684);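 further: CYP3A4 tested as one member of a cytochrome P450 panel screen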
[21] = target: Nonstructural protein 1 (Influenza A virus, UniProt Q194T2); type: functional, Influenza A virus (A/California/07/2009(H1N1))
[22] = Luminescence Cell-Based Dose Retest to Confirm Inhibitors of Cancer Stem Cells. [Related pubchem assays (depositor defined):AID2717, AID2721]; type: functional; details: Homo sapiens
[23] = system: HEK293; assay: cells; details: Homo sapiens
[24] = system: HEK293; assay: cells; details: Homo sapiens; remark: listed apart in the source
[25] = target: Cytochrome P450 2C9 (Homo sapiens, UniProt P11712)
[26] = target: Cytochrome P450 2C19 (Homo sapiens, UniProt P33261); assay: Cytochrome panel assay with activity outcomes. Panel member name: p450-cyp2c19 Compounds with AC50 equal or less than 10 uM are considered active; type: functional; details: read-out: AC50
[27] = NIH-3T3 fibroblast cytotoxicity, dose response, cytotoxicity control, cell-based, fluorescence, Alamar Blue, secondary assay (AID 2327); type: functional;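 further: NIH-3T3 mouse fibroblasts cultured with fluconazole at 8 µg/mL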
[28] = fluconazole-exposed Candida albicans growth modulators – fluorescence, retest, confirmation (AID 2467); type: functional, cell-based

Sequence of Beta Lactamase (Q932Y6 whole entry): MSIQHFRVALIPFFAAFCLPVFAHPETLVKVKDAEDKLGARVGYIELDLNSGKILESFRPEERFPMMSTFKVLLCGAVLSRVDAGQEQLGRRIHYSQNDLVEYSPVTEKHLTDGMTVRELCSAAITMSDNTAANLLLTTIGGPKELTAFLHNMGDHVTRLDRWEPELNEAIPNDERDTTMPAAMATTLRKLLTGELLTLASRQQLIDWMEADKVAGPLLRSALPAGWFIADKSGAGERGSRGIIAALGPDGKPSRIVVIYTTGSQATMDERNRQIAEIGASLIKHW
Sequence of Cytochrome P450 3A4 (P08684 whole entry): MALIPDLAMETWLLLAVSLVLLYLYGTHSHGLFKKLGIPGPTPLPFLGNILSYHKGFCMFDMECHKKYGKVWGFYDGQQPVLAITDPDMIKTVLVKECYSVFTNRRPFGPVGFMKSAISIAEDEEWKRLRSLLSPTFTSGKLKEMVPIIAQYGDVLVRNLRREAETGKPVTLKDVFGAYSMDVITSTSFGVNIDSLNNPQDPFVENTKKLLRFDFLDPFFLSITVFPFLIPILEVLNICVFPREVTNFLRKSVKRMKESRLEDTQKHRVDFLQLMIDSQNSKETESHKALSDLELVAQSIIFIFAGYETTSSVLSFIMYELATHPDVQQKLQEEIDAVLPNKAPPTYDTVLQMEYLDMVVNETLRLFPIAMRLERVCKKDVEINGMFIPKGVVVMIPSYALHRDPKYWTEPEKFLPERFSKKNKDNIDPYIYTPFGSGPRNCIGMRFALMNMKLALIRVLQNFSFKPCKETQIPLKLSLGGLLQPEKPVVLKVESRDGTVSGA
Sequence of Cytochrome P450 2C19 (P33261 whole entry): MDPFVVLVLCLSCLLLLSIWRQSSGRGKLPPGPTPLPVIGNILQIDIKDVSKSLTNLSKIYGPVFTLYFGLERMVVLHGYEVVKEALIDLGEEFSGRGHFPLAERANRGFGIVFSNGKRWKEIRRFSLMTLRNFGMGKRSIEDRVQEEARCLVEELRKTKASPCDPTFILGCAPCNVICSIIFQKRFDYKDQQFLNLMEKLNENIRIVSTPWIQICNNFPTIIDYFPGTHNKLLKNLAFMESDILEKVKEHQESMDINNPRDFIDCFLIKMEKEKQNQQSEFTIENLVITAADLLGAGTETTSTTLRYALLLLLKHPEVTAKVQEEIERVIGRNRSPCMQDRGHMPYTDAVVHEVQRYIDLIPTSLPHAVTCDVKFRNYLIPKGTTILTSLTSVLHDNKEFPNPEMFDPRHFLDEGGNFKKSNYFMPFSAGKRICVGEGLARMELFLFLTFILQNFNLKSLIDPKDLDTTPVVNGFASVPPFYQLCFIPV
Sequence of Cytochrome P450 2C9 (P11712 whole entry): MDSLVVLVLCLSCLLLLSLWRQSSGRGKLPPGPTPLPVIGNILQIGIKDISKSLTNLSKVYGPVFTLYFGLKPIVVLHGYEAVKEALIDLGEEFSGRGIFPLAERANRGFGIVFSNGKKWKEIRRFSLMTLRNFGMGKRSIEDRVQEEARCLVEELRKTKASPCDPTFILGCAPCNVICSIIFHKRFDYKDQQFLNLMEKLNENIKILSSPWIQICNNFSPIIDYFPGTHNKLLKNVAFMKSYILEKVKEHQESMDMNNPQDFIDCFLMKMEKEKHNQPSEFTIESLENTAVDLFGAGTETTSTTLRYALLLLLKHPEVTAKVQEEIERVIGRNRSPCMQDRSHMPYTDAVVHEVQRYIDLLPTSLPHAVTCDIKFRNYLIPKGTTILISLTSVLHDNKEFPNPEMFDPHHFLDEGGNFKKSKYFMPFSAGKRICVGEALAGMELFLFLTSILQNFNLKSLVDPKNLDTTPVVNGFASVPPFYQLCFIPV
Sequence of Nucleotide-binding oligomerization domain-containing protein 2 (Q9HC29 whole entry, the tested form may be a part): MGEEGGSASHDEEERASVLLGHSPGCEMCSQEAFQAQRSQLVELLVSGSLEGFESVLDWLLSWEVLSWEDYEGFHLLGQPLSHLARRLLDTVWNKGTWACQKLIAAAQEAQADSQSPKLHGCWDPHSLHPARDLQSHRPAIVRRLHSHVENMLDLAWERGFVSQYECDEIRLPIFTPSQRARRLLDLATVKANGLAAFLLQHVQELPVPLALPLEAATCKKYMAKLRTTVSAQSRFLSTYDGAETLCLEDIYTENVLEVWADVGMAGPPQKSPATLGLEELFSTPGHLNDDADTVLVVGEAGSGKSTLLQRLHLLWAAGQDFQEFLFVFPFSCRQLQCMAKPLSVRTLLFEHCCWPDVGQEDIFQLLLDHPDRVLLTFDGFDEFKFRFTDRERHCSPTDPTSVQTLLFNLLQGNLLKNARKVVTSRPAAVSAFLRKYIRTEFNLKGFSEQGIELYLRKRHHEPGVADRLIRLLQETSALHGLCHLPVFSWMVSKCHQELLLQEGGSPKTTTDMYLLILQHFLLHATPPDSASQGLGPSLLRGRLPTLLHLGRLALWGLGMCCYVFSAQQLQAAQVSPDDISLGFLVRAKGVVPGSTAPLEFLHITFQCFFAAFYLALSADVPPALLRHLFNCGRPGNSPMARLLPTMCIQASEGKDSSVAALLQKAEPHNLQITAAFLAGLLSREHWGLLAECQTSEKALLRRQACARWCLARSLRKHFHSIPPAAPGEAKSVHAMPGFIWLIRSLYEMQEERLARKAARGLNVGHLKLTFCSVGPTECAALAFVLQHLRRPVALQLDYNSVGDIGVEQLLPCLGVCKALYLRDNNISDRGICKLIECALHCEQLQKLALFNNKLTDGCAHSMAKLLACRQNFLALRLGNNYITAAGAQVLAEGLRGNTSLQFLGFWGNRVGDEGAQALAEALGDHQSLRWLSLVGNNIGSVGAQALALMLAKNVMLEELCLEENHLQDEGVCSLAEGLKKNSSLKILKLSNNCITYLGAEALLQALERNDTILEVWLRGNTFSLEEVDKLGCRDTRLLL
Sequence of Nonstructural protein 1 (Q194T2 whole entry): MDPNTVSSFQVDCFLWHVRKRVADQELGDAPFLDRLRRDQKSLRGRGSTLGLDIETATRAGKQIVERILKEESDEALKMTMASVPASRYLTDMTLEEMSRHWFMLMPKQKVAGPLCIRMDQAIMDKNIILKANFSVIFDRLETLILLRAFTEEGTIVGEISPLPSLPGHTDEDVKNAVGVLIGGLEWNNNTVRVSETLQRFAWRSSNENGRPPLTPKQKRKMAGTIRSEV

SMILES: Cn1c2ccccc2c(=O)c2ccc(C#Cc3ccc(N)cc3)cc21
- CC50 [1]: > 50 µM (active)
- IC50 [2]: 5.26 µM (active)
- EC50 [3]: 2.12 µM (active)
- IC50 [4]: > 49.8 µM (inactive)
- EC50 [5]: 1.92 µM (active)

SMILES: CCCn1c(NC(=O)c2ccc([N+](=O)[O-])o2)nc2ccccc21
- IC50 [6]: > 118 µM (inactive)
- CC50 [7]: 17.1 µM (active)
- IC50 [8]: > 118 µM (inactive)
- CC50 [9]: 13.3 µM (active)
- IC50 [10]: 1.51 µM (active)
- EC50 [11]: > 30 µM (not active)
- EC50 [12]: 0.128 µM (active)

SMILES: CCOc1cc(/C=C2\C(=N)N3N=C(S(C)(=O)=O)SC3=NC2=O)ccc1OCCOc1cccc(OC)c1
- EC50 [13]: > 20 µM (inactive)
- EC50 [14]: > 300 µM (not active)
- EC50 [15]: 14.5 µM (active)
- IC50 [16]: > 20 µM (inactive)
- IC50 [17]: > 20 µM (inactive)
- IC50 [18]: > 20 µM (inactive)
- IC50 [19]: > 20 µM (inactive)

SMILES: O=C(c1cccc(F)c1)N1CCC2(CC1)CN(c1ncccn1)C2
- AC50 [20]: inconclusive

SMILES: CN(C)c1ccc(N=Nc2ccccc2C(=O)OCC(=O)NC2CCCC2)cc1
- IC50 [21]: 20.4 µM (active)

SMILES: Cc1ccsc1/C=C/c1ccc2cccc(O)c2n1
- AC50 [22]: 6.83 µM (active)
- EC50 [23]: > 59.7 µM (inactive)
- EC50 [24]: > 59.7 µM (inactive)

SMILES: O=C(Cc1ccccc1)Nc1nc(=O)c2ccccc2s1
- AC50 [25]: 3.55 µM (inconclusive)
- AC50 [26]: 2.82 µM (inconclusive)
- AC50 [20]: inconclusive

SMILES: COc1ccccc1-c1ccc2c(c1)C(C)(Cc1cccc(C#N)c1)C(=O)N2 (configuration not stated)
- EC50 [23]: > 59.6 µM (inactive)
- EC50 [24]: > 59.6 µM (inactive)

SMILES: COc1ccc(CN2CCC2(C)C(=O)Nc2cccc(NS(C)(=O)=O)c2)c2ccccc12 (configuration not stated)
- EC50 [23]: > 59.7 µM (inactive)
- EC50 [24]: > 59.7 µM (inactive)

SMILES: Cc1cccc(/C=N/NC(=O)c2cccc([N+](=O)[O-])c2)n1
- EC50 [23]: > 59.6 µM (inactive)
- EC50 [24]: > 59.6 µM (inactive)

SMILES: C/C(=N\Nc1ccc([N+](=O)[O-])cc1)c1ccc2c(c1)OCO2
- EC50 [27]: > 150 µM (inactive)
- EC50 [28]: > 38 µM (not active)
- IC50 [2]: 12.5 µM (inactive)
- IC50 [4]: > 49.7 µM (inactive)

From ChEMBL document CHEMBL1201862, “PubChem BioAssay data set” (2004)
